# Results: the NIST ThermoML archive (doi:10.1021/je700428f)
# Numbers after ± are expanded uncertainties.
# Test: xn = mol fraction of the nth substance listed
# Conditions: 101 kPa, Liquid; for viscosity: Capillary tube (Ostwald / Ubbelohde) method
smiles,measurement,setting,value
CCCCCCCCC [nonane] + COC(C)(C)C,viscosity,"273.15 K, x2 = 0",0.972 ± 0.01 mPa·s
same,viscosity,"273.15 K, x2 = 0.1006",0.912 ± 0.01 mPa·s
same,viscosity,"273.15 K, x2 = 0.2026",0.85 ± 0.01 mPa·s
same,viscosity,"273.15 K, x2 = 0.2995",0.796 ± 0.01 mPa·s
same,viscosity,"273.15 K, x2 = 0.4045",0.74 ± 0.009 mPa·s
same,viscosity,"273.15 K, x2 = 0.5003",0.688 ± 0.009 mPa·s
same,viscosity,"273.15 K, x2 = 0.6035",0.632 ± 0.009 mPa·s
same,viscosity,"273.15 K, x2 = 0.6998",0.586 ± 0.009 mPa·s
same,viscosity,"273.15 K, x2 = 0.7975",0.54 ± 0.009 mPa·s
same,viscosity,"273.15 K, x2 = 0.8971",0.491 ± 0.009 mPa·s
same,mass density,"273.15 K, x2 = 0",733.184 ± 0.57 kg/m3
same,mass density,"273.15 K, x2 = 0.1085",734.69 ± 0.57 kg/m3
same,mass density,"273.15 K, x2 = 0.1722",735.67 ± 0.57 kg/m3
same,mass density,"273.15 K, x2 = 0.3037",737.89 ± 0.56 kg/m3
same,mass density,"273.15 K, x2 = 0.4011",739.94 ± 0.55 kg/m3
same,mass density,"273.15 K, x2 = 0.5008",742.31 ± 0.55 kg/m3
same,mass density,"273.15 K, x2 = 0.6005",745.08 ± 0.54 kg/m3
same,mass density,"273.15 K, x2 = 0.6992",748.17 ± 0.54 kg/m3
same,mass density,"273.15 K, x2 = 0.8005",751.89 ± 0.54 kg/m3
same,mass density,"273.15 K, x2 = 0.8925",755.81 ± 0.54 kg/m3
same,viscosity,"278.15 K, x2 = 0",0.896 ± 0.01 mPa·s
same,viscosity,"278.15 K, x2 = 0.1006",0.842 ± 0.01 mPa·s
same,viscosity,"278.15 K, x2 = 0.2026",0.787 ± 0.01 mPa·s
same,viscosity,"278.15 K, x2 = 0.2995",0.738 ± 0.009 mPa·s
same,viscosity,"278.15 K, x2 = 0.4045",0.689 ± 0.009 mPa·s
same,viscosity,"278.15 K, x2 = 0.5003",0.641 ± 0.009 mPa·s
same,viscosity,"278.15 K, x2 = 0.6035",0.591 ± 0.009 mPa·s
same,viscosity,"278.15 K, x2 = 0.6998",0.549 ± 0.009 mPa·s
same,viscosity,"278.15 K, x2 = 0.7975",0.505 ± 0.009 mPa·s
same,viscosity,"278.15 K, x2 = 0.8971",0.46 ± 0.009 mPa·s
same,mass density,"278.15 K, x2 = 0",729.335 ± 0.58 kg/m3
same,mass density,"278.15 K, x2 = 0.1085",730.78 ± 0.57 kg/m3
same,mass density,"278.15 K, x2 = 0.1722",731.71 ± 0.57 kg/m3
same,mass density,"278.15 K, x2 = 0.3037",733.82 ± 0.56 kg/m3
same,mass density,"278.15 K, x2 = 0.4011",735.78 ± 0.56 kg/m3
same,mass density,"278.15 K, x2 = 0.5008",738.04 ± 0.55 kg/m3
same,mass density,"278.15 K, x2 = 0.6005",740.68 ± 0.55 kg/m3
same,mass density,"278.15 K, x2 = 0.6992",743.64 ± 0.55 kg/m3
same,mass density,"278.15 K, x2 = 0.8005",747.2 ± 0.54 kg/m3
same,mass density,"278.15 K, x2 = 0.8925",750.95 ± 0.55 kg/m3
same,viscosity,"283.15 K, x2 = 0",0.828 ± 0.01 mPa·s
same,viscosity,"283.15 K, x2 = 0.1006",0.78 ± 0.01 mPa·s
same,viscosity,"283.15 K, x2 = 0.2026",0.731 ± 0.009 mPa·s
same,viscosity,"283.15 K, x2 = 0.2995",0.687 ± 0.009 mPa·s
same,viscosity,"283.15 K, x2 = 0.4045",0.643 ± 0.009 mPa·s
same,viscosity,"283.15 K, x2 = 0.5003",0.598 ± 0.009 mPa·s
same,viscosity,"283.15 K, x2 = 0.6035",0.554 ± 0.009 mPa·s
same,viscosity,"283.15 K, x2 = 0.6998",0.514 ± 0.009 mPa·s
same,viscosity,"283.15 K, x2 = 0.7975",0.474 ± 0.009 mPa·s
same,viscosity,"283.15 K, x2 = 0.8971",0.433 ± 0.009 mPa·s
same,mass density,"283.15 K, x2 = 0",725.473 ± 0.59 kg/m3
same,mass density,"283.15 K, x2 = 0.1085",726.84 ± 0.58 kg/m3
same,mass density,"283.15 K, x2 = 0.1722",727.73 ± 0.58 kg/m3
same,mass density,"283.15 K, x2 = 0.3037",729.73 ± 0.57 kg/m3
same,mass density,"283.15 K, x2 = 0.4011",731.59 ± 0.56 kg/m3
same,mass density,"283.15 K, x2 = 0.5008",733.74 ± 0.56 kg/m3
same,mass density,"283.15 K, x2 = 0.6005",736.26 ± 0.55 kg/m3
same,mass density,"283.15 K, x2 = 0.6992",739.08 ± 0.55 kg/m3
same,mass density,"283.15 K, x2 = 0.8005",742.47 ± 0.55 kg/m3
same,mass density,"283.15 K, x2 = 0.8925",746.06 ± 0.55 kg/m3
same,viscosity,"288.15 K, x2 = 0",0.768 ± 0.009 mPa·s
same,viscosity,"288.15 K, x2 = 0.1006",0.726 ± 0.009 mPa·s
same,viscosity,"288.15 K, x2 = 0.2026",0.681 ± 0.009 mPa·s
same,viscosity,"288.15 K, x2 = 0.2995",0.641 ± 0.009 mPa·s
same,viscosity,"288.15 K, x2 = 0.4045",0.6 ± 0.009 mPa·s
same,viscosity,"288.15 K, x2 = 0.5003",0.56 ± 0.009 mPa·s
same,viscosity,"288.15 K, x2 = 0.6035",0.52 ± 0.009 mPa·s
same,viscosity,"288.15 K, x2 = 0.6998",0.484 ± 0.009 mPa·s
same,viscosity,"288.15 K, x2 = 0.7975",0.446 ± 0.009 mPa·s
same,viscosity,"288.15 K, x2 = 0.8971",0.407 ± 0.009 mPa·s
same,mass density,"288.15 K, x2 = 0",721.603 ± 0.59 kg/m3
same,mass density,"288.15 K, x2 = 0.1085",722.9 ± 0.59 kg/m3
same,mass density,"288.15 K, x2 = 0.1722",723.73 ± 0.58 kg/m3
same,mass density,"288.15 K, x2 = 0.3037",725.62 ± 0.57 kg/m3
same,mass density,"288.15 K, x2 = 0.4011",727.39 ± 0.57 kg/m3
same,mass density,"288.15 K, x2 = 0.5008",729.43 ± 0.56 kg/m3
same,mass density,"288.15 K, x2 = 0.6005",731.81 ± 0.56 kg/m3
same,mass density,"288.15 K, x2 = 0.6992",734.49 ± 0.56 kg/m3
same,mass density,"288.15 K, x2 = 0.8005",737.72 ± 0.55 kg/m3
same,mass density,"288.15 K, x2 = 0.8925",741.13 ± 0.56 kg/m3
same,viscosity,"293.15 K, x2 = 0",0.716 ± 0.009 mPa·s
same,viscosity,"293.15 K, x2 = 0.1006",0.677 ± 0.009 mPa·s
same,viscosity,"293.15 K, x2 = 0.2026",0.637 ± 0.009 mPa·s
same,viscosity,"293.15 K, x2 = 0.2995",0.601 ± 0.009 mPa·s
same,viscosity,"293.15 K, x2 = 0.4045",0.564 ± 0.009 mPa·s
same,viscosity,"293.15 K, x2 = 0.5003",0.526 ± 0.009 mPa·s
same,viscosity,"293.15 K, x2 = 0.6035",0.489 ± 0.009 mPa·s
same,viscosity,"293.15 K, x2 = 0.6998",0.455 ± 0.009 mPa·s
same,viscosity,"293.15 K, x2 = 0.7975",0.418 ± 0.009 mPa·s
same,viscosity,"293.15 K, x2 = 0.8971",0.384 ± 0.009 mPa·s
same,mass density,"293.15 K, x2 = 0",717.725 ± 0.6 kg/m3
same,mass density,"293.15 K, x2 = 0.1085",718.92 ± 0.59 kg/m3
same,mass density,"293.15 K, x2 = 0.1722",719.72 ± 0.59 kg/m3
same,mass density,"293.15 K, x2 = 0.3037",721.51 ± 0.58 kg/m3
same,mass density,"293.15 K, x2 = 0.4011",723.16 ± 0.57 kg/m3
same,mass density,"293.15 K, x2 = 0.5008",725.09 ± 0.57 kg/m3
same,mass density,"293.15 K, x2 = 0.6005",727.34 ± 0.57 kg/m3
same,mass density,"293.15 K, x2 = 0.6992",729.87 ± 0.56 kg/m3
same,mass density,"293.15 K, x2 = 0.8005",732.94 ± 0.56 kg/m3
same,mass density,"293.15 K, x2 = 0.8925",736.17 ± 0.56 kg/m3
same,viscosity,"298.15 K, x2 = 0",0.669 ± 0.009 mPa·s
same,viscosity,"298.15 K, x2 = 0.1006",0.634 ± 0.009 mPa·s
same,viscosity,"298.15 K, x2 = 0.2026",0.598 ± 0.009 mPa·s
same,viscosity,"298.15 K, x2 = 0.2995",0.564 ± 0.009 mPa·s
same,viscosity,"298.15 K, x2 = 0.4045",0.529 ± 0.009 mPa·s
same,viscosity,"298.15 K, x2 = 0.5003",0.496 ± 0.009 mPa·s
same,viscosity,"298.15 K, x2 = 0.6035",0.461 ± 0.009 mPa·s
same,viscosity,"298.15 K, x2 = 0.6998",0.43 ± 0.009 mPa·s
same,viscosity,"298.15 K, x2 = 0.7975",0.396 ± 0.009 mPa·s
same,viscosity,"298.15 K, x2 = 0.8971",0.363 ± 0.009 mPa·s
same,mass density,"298.15 K, x2 = 0",713.834 ± 0.6 kg/m3
same,mass density,"298.15 K, x2 = 0.1085",714.95 ± 0.6 kg/m3
same,mass density,"298.15 K, x2 = 0.1722",715.7 ± 0.59 kg/m3
same,mass density,"298.15 K, x2 = 0.3037",717.36 ± 0.59 kg/m3
same,mass density,"298.15 K, x2 = 0.4011",718.92 ± 0.58 kg/m3
same,mass density,"298.15 K, x2 = 0.5008",720.73 ± 0.58 kg/m3
same,mass density,"298.15 K, x2 = 0.6005",722.84 ± 0.57 kg/m3
same,mass density,"298.15 K, x2 = 0.6992",725.22 ± 0.57 kg/m3
same,mass density,"298.15 K, x2 = 0.8005",728.11 ± 0.57 kg/m3
same,mass density,"298.15 K, x2 = 0.8925",731.18 ± 0.57 kg/m3
same,viscosity,"303.15 K, x2 = 0",0.628 ± 0.009 mPa·s
same,viscosity,"303.15 K, x2 = 0.1006",0.596 ± 0.009 mPa·s
same,viscosity,"303.15 K, x2 = 0.2026",0.563 ± 0.009 mPa·s
same,viscosity,"303.15 K, x2 = 0.2995",0.532 ± 0.009 mPa·s
same,viscosity,"303.15 K, x2 = 0.4045",0.498 ± 0.009 mPa·s
same,viscosity,"303.15 K, x2 = 0.5003",0.468 ± 0.009 mPa·s
same,viscosity,"303.15 K, x2 = 0.6035",0.436 ± 0.009 mPa·s
same,viscosity,"303.15 K, x2 = 0.6998",0.408 ± 0.009 mPa·s
same,viscosity,"303.15 K, x2 = 0.7975",0.377 ± 0.009 mPa·s
same,mass density,"303.15 K, x2 = 0",709.929 ± 0.61 kg/m3
same,mass density,"303.15 K, x2 = 0.1085",710.96 ± 0.6 kg/m3
same,mass density,"303.15 K, x2 = 0.1722",711.66 ± 0.6 kg/m3
same,mass density,"303.15 K, x2 = 0.3037",713.21 ± 0.59 kg/m3
same,mass density,"303.15 K, x2 = 0.4011",714.65 ± 0.59 kg/m3
same,mass density,"303.15 K, x2 = 0.5008",716.34 ± 0.58 kg/m3
same,mass density,"303.15 K, x2 = 0.6005",718.32 ± 0.58 kg/m3
same,mass density,"303.15 K, x2 = 0.6992",720.55 ± 0.57 kg/m3
same,mass density,"303.15 K, x2 = 0.8005",723.25 ± 0.57 kg/m3
same,mass density,"303.15 K, x2 = 0.8925",726.13 ± 0.57 kg/m3
same,viscosity,"308.15 K, x2 = 0",0.59 ± 0.009 mPa·s
same,viscosity,"308.15 K, x2 = 0.1006",0.56 ± 0.009 mPa·s
same,viscosity,"308.15 K, x2 = 0.2026",0.531 ± 0.009 mPa·s
same,viscosity,"308.15 K, x2 = 0.2995",0.502 ± 0.009 mPa·s
same,viscosity,"308.15 K, x2 = 0.4045",0.47 ± 0.009 mPa·s
same,viscosity,"308.15 K, x2 = 0.5003",0.443 ± 0.009 mPa·s
same,viscosity,"308.15 K, x2 = 0.6035",0.413 ± 0.009 mPa·s
